According to patent US9994587B2, “HIV protease inhibitors” (priority 2014, dated 2018):

Each compound was assayed against T1, wildtype HIV-1 protease (Human immunodeficiency virus type 1 group M subtype B, UniProt P04585) (assay: Assay for inhibition of microbial expressed HIV protease (Pepcleav)). Settings: wild type HIV-1 protease 20 pM, peptide substrate 400 micromolar, pH 5.5; mean of at least two independent experiments.
T1 construct: preincubated with the HIV-1 protease (wild type) enzyme in assay buffer; made in house; host or cells: Escherichia coli
Format: biochemical
Summary of the method: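 E. coli-expressed enzyme preincubated with inhibitor 30 min at room temperature in 50 mM sodium acetate pH 5.5, 100 mM NaCl, 0.1% BSA, then 400 micromolar peptide substrate added with 20 picomolar protease (final), 1 h at 30° C. Product quantified by LC-MS/MS peak area after formic acid/indinavir quench.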
With COC(=O)N[C@H](C(=O)NCCCC1CNC[C@@H](CSc2ccc(Cl)cc2)O1)C(c1ccccc1)c1ccccc1 (stereo partly drawn) [Example 2, methyl N-[(1S)-1-benzhydryl-2-[3-[(6S)-6-[(4-chlorophenyl)sulfanylmethyl]morpholin-2-yl]propylamino]-2-oxo-ethyl]carbamate] the IC50 was 300 nM. For COC(=O)N[C@H](C(=O)Nc1c(CC[C@@H]2CNC[C@@H](CSc3ccc(Cl)cc3)O2)cc[nH]c1=O)C(c1ccccc1)c1ccccc1 [Example 87, N-(4-{2-[(2R,6S)-6-{[(4-chlorophenyl)sulfanyl]methyl}morpholin-2-yl]ethyl}-2-oxo-1,2-dihydropyridin-3-yl)-Nα-(methoxycarbonyl)-β-phenyl-L-phenylalaninamide], the IC50 was 0.05 nM. In the case of N[C@H](C(=O)Nc1c(CC[C@@H]2CNC[C@@H](CSc3ccc(Cl)cc3)O2)cc[nH]c1=O)C(c1ccccc1)c1ccccc1 [Example 88, N-(4-{2-[(2R,6S)-6-{[(4-chlorophenyl)sulfanyl]methyl}morpholin-2-yl]ethyl}-2-oxo-1,2-dihydropyridin-3-yl)-β-phenyl-L-phenylalaninamide], the IC50 is reported as 0.04 nM. Compound C#C[C@@H]1CNC[C@@H](CCc2ccccc2NC(=O)[C@@H](NC(=O)OC)C(c2ccccc2)c2ccccc2)O1 [Example 111, N-(2-{2-[(2R,6R)-6-ethynylmorpholin-2-yl]ethyl}phenyl)-Nα-(methoxycarbonyl)-β-phenyl-L-phenylalaninamide] has an IC50 of 580 nM.

Each compound was assayed on HIV-1 (NL4-3 strain) (assay: Viral Kinetics GFP Reporter (ViKinG) assay). Settings: Human immunodeficiency virus 1, NL43; 50% NHS; MT4-GFP cells infected with HIV-1 NL4-3; mean of at least two independent experiments.
Format: cell-based
Source text: Viral Kinetics GFP Reporter (ViKinG) Assay
The ViKinG assay is an in vitro kinetic assay that employs the MT4-gag-GFP reporter cell line (Wang et al., “Assessment of the susceptibility of mutant HIV-1 to antiviral agents.” J Virological Methods 165:230-37 (2010)) to quantify the number of new cells infected in each round of replication. The purpose of the ViKinG assay is to identify agents that inhibit HIV progression. Briefly, HIV infection results in tat transactivation of the stably expressed HIV LTR promoter to drive gagGFP expression. Thus, an increase in the number of GFP-MT4 cells results following HIV infection.
MT4-GFP cells (250,000 cells/ml) were bulk-infected with HIV-1 (NL4-3 strain) at low multiplicity of infection (MOI) in RPMI+10% FBS for 24 hours. Cells were then washed once in RPMI+10% FBS and resuspended RPMI+10% or 50% normal human serum (NHS). Test compounds were serial-diluted in DMSO on an ECHO® liquid handling platform (Labcyte Corp., Sunnyvale, Calif.), along with a triple drug control (integrase, protease and NNRTI compounds). The infected MT4-GFP cells were added to a 384-well poly-D-lysine coated black plate with clear bottom in which the diluted test compounds were placed. The cells were seeded at 8,000 cells per well and the final DMSO concentration was 0.4%. The infected cells (Green GFP cells) were quantified at both 24 and 48 hours post incubation using Acumen® eX3 (TTP Labtech Ltd., Hertfordshire, United Kingdom). Viral reproductive ratio (R0) was determined using the number of infected cells at 48 hours divided by the number of infected cells at 24 hours. Percent viral growth inhibition was calculated by [1−(R−Rtripledrug)/(RDMSO−Rtripledrug)]*100. Compound potency IP or IC50 was determined by a 4-parameter dose response curve analysis.
For COC(=O)N[C@H](C(=O)Nc1cccc(F)c1CC[C@@H]1CNCC2(CCOCC2)O1)[C@@H](c1ccc(Cl)cc1)c1cc(F)cc(F)c1 [Example 97, methyl {(1S,2S)-2-(4-chlorophenyl)-2-(3,5-difluorophenyl)-1-[(2-{2-[(2R)-1,9-dioxa-4-azaspiro[5.5]undec-2-yl]ethyl}-3-fluorophenyl)carbamoyl]ethyl}carbamate], the IC50 was 55 nM. With COC(=O)N[C@H](C(=O)Nc1cccc(F)c1CC[C@@H]1CNCC2(CCOCC2)O1)[C@@H](c1ccc(Cl)cc1)C1CCOCC1 [Example 161, methyl[(1S,2R)-2-(4-chlorophenyl)-1-[(2-{2-[(2R)-1,9-dioxa-4-azaspiro[5.5]undec-2-yl]ethyl}-3-fluorophenyl)carbamoyl]-2-(tetrahydro-2H-pyran-4-yl)ethyl]carbamate] the IC50 was 130 nM. Work on COC(=O)N[C@H](C(=O)Nc1cncc(F)c1CC[C@@H]1CNCC2(CCOCC2)O1)[C@@H](c1ccc(Cl)cc1)c1cccc(OC(F)(F)F)c1 [Example 157, methyl{(1S,2S)-2-(4-chlorophenyl)-1-[(4-{2-[(2R)-1,9-dioxa-4-azaspiro[5.5]undec-2-yl]ethyl}-5-fluoropyridin-3-yl)carbamoyl]-2-[3-(trifluoromethoxy)phenyl]ethyl}carbamate] yielded an IC50 of 210 nM. For COC(=O)N[C@H](C(=O)Nc1cccc(F)c1CC[C@@H]1CNCC2(CCN(C(C)=O)CC2)O1)[C@@H](c1ccc(Cl)cc1)c1cc(F)cc(F)c1 [Example 151, methyl{(1S)-2-[(2-{2-[(2R)-9-acetyl-1-oxa-4,9-diazaspiro[5.5]undec-2-yl]ethyl}-3-fluorophenyl)amino]-1-[(S)-(4-chlorophenyl)(3,5-difluorophenyl)methyl]-2-oxoethyl}carbamate], the IC50 was 170 nM. CC(=O)N1CCC2(CC1)CNC[C@@H](CCc1c(F)cncc1NC(=O)[C@@H](N)[C@@H](c1ccc(Cl)cc1)c1cc(F)cc(F)c1)O2 [Example 152, (βS)-N-(4-{2-[(2R)-9-acetyl-1-oxa-4,9-diazaspiro[5.5]undec-2-yl]ethyl}-5-fluoropyridin-3-yl)-4-chloro-β-(3,5-difluorophenyl)-L-phenylalaninamide] gave an IC50 of 320 nM. Work on COC(=O)N[C@H](C(=O)Nc1cncc(F)c1CC[C@@H]1CNCC2(CCCC2)O1)C(c1ccc(F)cc1)c1ccc(F)cc1 [Example 100, methyl {(1S)-1-[bis(4-fluorophenyl)methyl]-2-[(5-fluoro-4-{2-[(7R)-6-oxa-9-azaspiro[4.5]dec-7-yl]ethyl}pyridin-3-yl)amino]-2-oxoethyl}carbamate] yielded an IC50 of 71 nM. COC(=O)N[C@H](C(=O)Nc1cccc(F)c1CC[C@@H]1CNCC2(CCCC(=O)C2)O1)[C@@H](c1ccc(F)cc1)c1cc(F)cc(F)c1 (stereo partly drawn) [Example 92, Methyl ((1S,2S)-1-(3,5-difluorophenyl)-3-((3-fluoro-2-(2-((2R)-8-oxo-1-oxa-4-azaspiro[5.5]undecan-2-yl)ethyl)phenyl)amino)-1-(4-fluorophenyl)-3-oxopropan-2-yl)carbamate] showed an IC50 of 35 nM. With N[C@H](C(=O)Nc1cncc(F)c1CC[C@@H]1CNCC2(CCOCC2)O1)[C@@H](c1ccc(Cl)cc1)C1CCOCC1 [Example 158, (βR)-4-chloro-N-(4-{2-[(2R)-1,9-dioxa-4-azaspiro[5.5]undec-2-yl]ethyl}-5-fluoropyridin-3-yl)-β-(tetrahydro-2H-pyran-4-yl)-L-phenylalaninamide] the IC50 was 390 nM. N[C@H](C(=O)Nc1cncc(F)c1CC[C@@H]1CNCC2(CCOCC2)O1)[C@@H](c1ccc(Cl)cc1)c1cccc(OC(F)(F)F)c1 [Example 156, (βS)-4-chloro-N-(4-{2-[(2R)-1,9-dioxa-4-azaspiro[5.5]undec-2-yl]ethyl}-5-fluoropyridin-3-yl)-β-[3-(trifluoromethoxy)phenyl]-L-phenylalaninamide] was tested, and the IC50 was 480 nM. N[C@H](C(=O)Nc1cccc(F)c1CC[C@@H]1CNCC2(CCOC2)O1)[C@@H](c1ccc(Cl)cc1)c1cc(F)cc(F)c1 (stereo partly drawn) [Example 162, (βS)-4-chloro-β-(3,5-difluorophenyl)-N-(2-{2-[(7R)-2,6-dioxa-9-azaspiro[4.5]dec-7-yl]ethyl}-3-fluorophenyl)-L-phenylalaninamide] was tested, and the IC50 was 180 nM. With N[C@H](C(=O)Nc1cncc(F)c1CC[C@@H]1CNCC2(CCCC2)O1)C(c1ccc(F)cc1)c1ccc(F)cc1 [Example 150, 4-fluoro-N-(5-fluoro-4-{2-[(7R)-6-oxa-9-azaspiro[4.5]dec-7-yl]ethyl}pyridin-3-yl)-β-(4-fluorophenyl)-L-phenylalaninamide] the IC50 was 270 nM. N[C@H](C(=O)Nc1cccc(F)c1CC[C@@H]1CNCC2(CCOCC2)O1)[C@@H](c1ccc(Cl)cc1)c1cc(F)cc(F)c1 [Example 96, (βS)-4-chloro-β-(3,5-difluorophenyl)-N-(2-{2-[(2R)-1,9-dioxa-4-azaspiro[5.5]undec-2-yl]ethyl}-3-fluorophenyl)-L-phenylalaninamide] was tested, and the IC50 was 80 nM. In the case of COC(=O)N[C@H](C(=O)Nc1cccc(F)c1CC[C@@H]1CNCC2(CCOC2)O1)[C@@H](c1ccc(Cl)cc1)c1cc(F)cc(F)c1 (stereo partly drawn) [Example 163, methyl{(1S,2S)-2-(4-chlorophenyl)-2-(3,5-difluorophenyl)-1-[(2-{2-[(7R)-2,6-dioxa-9-azaspiro[4.5]dec-7-yl]ethyl}-3-fluorophenyl)carbamoyl]ethyl}carbamate], the IC50 is reported as 150 nM. CC(=O)N1CCC2(CC1)CNC[C@@H](CCc1c(F)cccc1NC(=O)[C@@H](N)[C@@H](c1ccc(Cl)cc1)c1cc(F)cc(F)c1)O2 [Example 95, (2S,3S)—N-(2-(2-((R)-9-Acetyl-1-oxa-4,9-diazaspiro[5.5]undecan-2-yl)ethyl)-3-fluorophenyl)-2-amino-3-(4-chlorophenyl)-3-(3,5-difluorophenyl)propanamide] was tested, and the IC50 was 150 nM. With COC(=O)N[C@H](C(=O)Nc1cncc(F)c1CC[C@@H]1CNCC2(CCOCC2)O1)[C@@H](c1ccc(Cl)cc1)C1CCOCC1 [Example 160, methyl[(1S,2R)-2-(4-chlorophenyl)-1-[(4-{2-[(2R)-1,9-dioxa-4-azaspiro[5.5]undec-2-yl]ethyl}-5-fluoropyridin-3-yl)carbamoyl]-2-(tetrahydro-2H-pyran-4-yl)ethyl]carbamate] the IC50 was 350 nM. Compound N[C@H](C(=O)Nc1cccc(F)c1CC[C@@H]1CNCC2(CCOCC2)O1)[C@@H](c1ccc(Cl)cc1)C1CCOCC1 [Example 159, (βR)-4-chloro-N-(2-{2-[(2R)-1,9-dioxa-4-azaspiro[5.5]undec-2-yl]ethyl}-3-fluorophenyl)-β-(tetrahydro-2H-pyran-4-yl)-L-phenylalaninamide] has an IC50 of 490 nM. Compound N[C@H](C(=O)Nc1cncc(F)c1CC[C@@H]1CNCC2(CCOCC2)O1)[C@@H](c1ccc(Cl)cc1)c1cc(F)cc(F)c1 [Example 155, (βS)-4-chloro-β-(3,5-difluorophenyl)-N-(4-{2-[(2R)-1,9-dioxa-4-azaspiro[5.5]undec-2-yl]ethyl}-5-fluoropyridin-3-yl)-L-phenylalaninamide] has an IC50 of 140 nM.
